Assay [1] deals with T1, native CFTR, genotype F508del/F508del (Homo sapiens, UniProt P13569, DEL508-508).
T1 construct: For functional studies of native CFTR, we used primary cultures of human bronchial epithelial cells; host or cells: primary human bronchial epithelial cells, F508del/F508del, air-liquid interface cultures
Kind of assay: Ussing chamber CFTR-mediated short-circuit current (Isc) in F508del/F508del human bronchial epithelial cells. The assay is classed as cell-based. As to conditions: for EC50: F508del/F508del epithelia of hBE cells, basal F508del‐CFTR expression, Isc, 27°C, read-out: EC50 (μM) (95% CI); for Emax: HBE, read-out: Maximal effect (%) (95% CI). From the text: For functional studies of native CFTR, we used primary cultures of human bronchial epithelial cells of genotypes F508del/F508del and F508del/G551D. Passage 1 (P1) human bronchial epithelial cells from SH Randell (University of North Carolina [UNC] Cystic Fibrosis Center Tissue Procurement and Cell Culture Core) were differentiated at an air–liquid interface as described by Neuberger et al., ([2011]) with some modifications. The research conducted on human cells at UNC has been verified as compliant with Pfizer policies, including institutional review board or institutional ethics committee approval. Cells were thawed and expanded in BEGM™ Bronchial Epithelial Cell Growth Medium (cat. no. CC‐3170, Lonza, USA) supplemented with retinoic acid (10 nM) and banked at P2. For functional assays, P2 cells were expanded to P4, and 5 × 10^5 P4 human bronchial epithelial cells were seeded in growth medium on Snapwell filter inserts (cat. no. 3801, Corning, NY, USA). Cells were switched to differentiation medium the following day and cultured submerged for 3 days before the medium was removed from the apical membrane to establish an air–liquid interface. Thereafter, the basolateral medium was changed every 2–3 days and mucus washed from the apical membrane every 2–3 weeks and the day prior to use starting 21 days after initiating air–liquid interface culture.
After >30 days of air–liquid interface culture on Snapwell filter inserts, human bronchial epithelial cells formed well differentiated, electrically tight epithelia (Rt > 200 Ω cm^2). Prior to study, F508del/F508del and F508del/G551D human bronchial epithelial cell cultures were incubated at 37°C and 5% CO2.
Epithelia were mounted in Ussing chambers and data acquired and analysed as described above for Ussing chamber studies of FRT cells heterologously expressing CFTR with the following exceptions. Both the apical and basolateral membranes were bathed in solutions containing (mM): 137 NaCl, 4 KCl, 1.8 CaCl2, 1 MgCl2, 10 Na HEPES, and 10 glucose (pH 7.4 with NaOH). Epithelia of F508del/G551D human bronchial epithelial cells were studied at 35°C, whereas those of F508del/F508del human bronchial epithelial cells were assayed at 27°C to maintain the apical membrane expression of F508del‐CFTR. After cancelling voltage offsets, transepithelial voltage was clamped at 0 mV and short‐circuit current (Isc) recorded continuously. The protocol to record CFTR‐mediated Isc was the same as for ICl ^apical measurements except that amiloride (30 μM, apical solution) was added to inhibit the epithelial Na^+ channel before forskolin (10 μM, apical and basolateral solutions) addition.

Assay [2] addresses F508del‐CFTR (Homo sapiens, UniProt P13569, DEL508-508). Briefly: Single-channel recording in excised inside-out membrane patches, F508del‐CFTR. The assay is classed as biochemical. Also on record: expressed in transfected cells; BHK cells from MD Amaral. As to conditions: for reduction of interburst interval (IBI): single active channel; for Emax: read-out: Maximal effect (%) (95% CI). As to the method: For CFTR studies using automated electrophysiology and single-channel recording, we used baby hamster kidney (BHK) cells (RRID:CVCL_1915) and human embryonic kidney (HEK) 293 cells (RRID:CVCL_0045) stably expressing wild-type human CFTR and the CFTR variants F508del- and […] et al., [2002]; Xu et al., [2014]). […] HEK cells expressing CFTR variants were generated using the Flp-InTM system as described above for F508del- and G551D-CFTR-expressing FRT cells. They were cultured in Dulbecco's modified Eagle's medium (glucose, 1.5 g·L^-1; sodium pyruvate, 110 mg·L^-1) supplemented with 10% FBS (PAA Laboratories), GlutaMAXTM and hygromycin-B (150 μg·ml^-1; InvitrogenTM, Thermo Fisher Scientific) at 37°C in a humidified atmosphere with 5% CO2. Prior to study, F508del-CFTR expressed in HEK cells was trafficked to the plasma membrane by low temperature incubation (27°C for 24-72 h). […] CFTR Cl^- channels were recorded in excised inside-out membrane patches using an Axopatch 200B patch-clamp amplifier and pCLAMP software (version 10.3) (RRID:SCR_011323) (both from Molecular Devices, San Jose, CA, USA) (Sheppard & Robinson, [1997]). […] Within 2 min after membrane patch excision, we added the catalytic subunit of protein kinase A (PKA; 75 nM) and ATP (1 mM) to the intracellular solution to activate CFTR Cl^- channels. To minimise channel rundown, we added PKA and millimolar concentrations of ATP to all intracellular solutions and clamped voltage at -50 mV. […] We reduced the ATP concentration when testing CFTR potentiators on wild-type CFTR to observe their effects more clearly. […] Instead, specific interventions with CFTR potentiators were compared with the pre-intervention control period made with the same concentration of ATP and PKA, but without test compounds. […] To determine channel number, we used the maximum number of simultaneous channel openings observed during an experiment (Cai et al., [2006]). To minimise errors, we used experimental conditions that robustly potentiate channel activity and verified that recordings were of sufficient length to ascertain the correct number of channels ([…] et al., [1994]). […] Therefore, Po values for G551D-CFTR are expressed as apparent Po (Po(app)) values. Single-channel currents were directly acquired to a computer hard disc after filtering at a corner frequency (f c) of 500 Hz with an eight-pole Bessel filter (model LHBF-48×; npi electronic GmbH, Tamm, Germany) and digitising at a sampling rate of 5 kHz using a Digidata 1440A interface (Molecular Devices) and pCLAMP software. To measure single-channel current amplitude (i), Gaussian distributions were fit to current amplitude histograms. For Po and burst analyses, lists of open- and closed-times were created using a half-amplitude crossing criterion for event detection and dwell-time histograms constructed as previously described (Sheppard & Robinson, [1997]); transitions < 1 ms were excluded from the analysis (eight-pole Bessel filter rise time [T 10-90] ~ 0.73 ms at f c = 500 Hz). Histograms were fitted with one or more component exponential functions using the maximum likelihood method. […] The mean interburst interval (TIBI) was calculated using the equation (Cai et al., [2006]): (1) Po=Tb/TMBD+TIBI, where T b = (mean burst duration) × (open probability within a burst). Mean burst duration (T MBD) and open probability within a burst (Po[burst]) were determined directly from experimental data using pCLAMP software.

Setting [3] is: F508del‐CFTR Cl− channels, excised inside-out patches, 23°C, data normalised to ivacaftor 1 μM, read-out: EC50 (μM) (95% CI).
[4] abbreviates: low temperature-rescued F508del‐CFTR, ATP 1 mM, PKA 75 nM, ~23°C.
Setting [5] is: low temperature-rescued F508del‐CFTR, ATP 1 mM, PKA 75 nM, ~23°C, read-out: EC50 for potentiation of Po.
[6] abbreviates: low temperature-rescued F508del‐CFTR, compound 10 μM, ATP 1 mM.
Where [7] appears, read: low temperature-rescued F508del‐CFTR, compound 1 μM, ATP 1 mM.

For orientation: EC50 means the concentration needed to bring the measured effect to its halfway point.

Structures are written as SMILES. Where two headings read alike, the source gives them in different places.

T1 sequence (P13569 with tags, fused parts or gaps DEL508-508): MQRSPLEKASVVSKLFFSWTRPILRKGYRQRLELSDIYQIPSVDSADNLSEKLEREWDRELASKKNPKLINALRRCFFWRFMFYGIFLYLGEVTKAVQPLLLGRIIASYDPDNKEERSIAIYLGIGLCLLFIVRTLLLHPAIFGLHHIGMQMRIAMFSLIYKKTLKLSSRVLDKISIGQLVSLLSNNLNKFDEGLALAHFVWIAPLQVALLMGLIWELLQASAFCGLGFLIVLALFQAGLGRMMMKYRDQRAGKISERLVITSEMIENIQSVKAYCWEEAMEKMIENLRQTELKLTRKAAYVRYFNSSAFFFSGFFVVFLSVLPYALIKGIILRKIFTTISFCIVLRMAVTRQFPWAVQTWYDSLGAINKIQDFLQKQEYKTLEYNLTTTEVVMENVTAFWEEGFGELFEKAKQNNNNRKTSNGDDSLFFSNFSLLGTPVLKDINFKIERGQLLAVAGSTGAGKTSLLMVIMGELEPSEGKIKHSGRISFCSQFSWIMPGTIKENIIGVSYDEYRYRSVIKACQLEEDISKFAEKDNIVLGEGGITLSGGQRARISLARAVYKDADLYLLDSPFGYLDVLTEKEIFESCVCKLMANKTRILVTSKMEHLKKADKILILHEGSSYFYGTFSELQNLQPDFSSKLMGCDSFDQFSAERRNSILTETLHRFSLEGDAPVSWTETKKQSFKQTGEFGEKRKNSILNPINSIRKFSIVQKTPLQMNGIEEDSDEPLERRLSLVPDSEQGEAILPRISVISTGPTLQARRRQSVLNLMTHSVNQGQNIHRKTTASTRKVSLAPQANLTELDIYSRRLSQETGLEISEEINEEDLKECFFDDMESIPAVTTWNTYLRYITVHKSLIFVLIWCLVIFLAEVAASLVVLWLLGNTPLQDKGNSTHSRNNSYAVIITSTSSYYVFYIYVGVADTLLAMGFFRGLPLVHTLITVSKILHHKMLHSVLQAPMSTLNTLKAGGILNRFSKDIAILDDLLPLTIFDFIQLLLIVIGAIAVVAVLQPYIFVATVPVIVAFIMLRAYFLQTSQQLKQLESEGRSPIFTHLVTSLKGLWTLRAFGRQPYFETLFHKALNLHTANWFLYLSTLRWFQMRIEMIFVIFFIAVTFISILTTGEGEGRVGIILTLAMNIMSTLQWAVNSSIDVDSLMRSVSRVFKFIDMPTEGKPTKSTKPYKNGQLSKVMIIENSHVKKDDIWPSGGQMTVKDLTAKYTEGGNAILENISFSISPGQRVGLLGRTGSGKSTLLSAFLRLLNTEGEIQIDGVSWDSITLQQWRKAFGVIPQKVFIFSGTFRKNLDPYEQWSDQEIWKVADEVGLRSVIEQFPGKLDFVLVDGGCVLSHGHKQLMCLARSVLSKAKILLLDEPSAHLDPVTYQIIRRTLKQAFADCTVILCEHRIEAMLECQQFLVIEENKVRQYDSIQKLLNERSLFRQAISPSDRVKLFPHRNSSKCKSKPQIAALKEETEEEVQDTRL
Sequence of F508del‐CFTR (P13569 with tags, fused parts or gaps DEL508-508): as above

Take `Cc1ncccc1CNC(=O)c1ccc2c(c1)CC[C@H]1C[C@](O)(CCC(F)(F)F)CC[C@]21Cc1ccccc1` (racemic) [CP‐628006, rac‐(4bR,7R,8aS)‐4b‐benzyl‐7‐hydroxy‐N‐((2‐methylpyridin‐3‐yl)methyl)‐7‐(3,3,3‐trifluoropropyl)‐4b,5,6,7,8,8a,9,10‐octahydrophenanthrene‐2‐carboxamide]: the EC50 in assay [1] came to 0.062 µM; in assay [2] (setting [3]), 0.5 µM; in assay [2] (setting [5]) it was 0.4 µM. Also, the Emax in assay [1] was 56%; in assay [2] it was 144%. Moreover, the Po max in assay [2] (setting [4]) is given as 0.62. For the same molecule, the “Po max of ATP-dependence in presence of compound” value in assay [2] (low temperature-rescued F508del‐CFTR, compound 300 nM, ATP 0.1–3 mM) is recorded as 0.33. Moreover, the “enhancement of Po” value in assay [2] (setting [6]) worked out at 13 ± 5 fold. In assay [2] (setting [6]), the “reduction of interburst interval (IBI)” value is listed as 15 fold.
As to `CC(C)(C)c1cc(C(C)(C)C)c(NC(=O)c2c[nH]c3ccccc3c2=O)cc1O` [ivacaftor, reference compound], the results for the concentration for a half-maximal effect (EC50) in assay [1], in assay [2] (setting [3]) and in assay [2] (setting [5]) were 0.002 µM, 0.008 µM and 0.01 µM, respectively. The Emax was 102% in assay [1] and 103% in assay [2]. Further, the Po max in assay [2] (setting [4]) is 0.51. Also, the “enhancement of Po” value in assay [2] (setting [7]) was found to be 9 ± 5 fold. In addition, the “reduction of interburst interval (IBI)” value in assay [2] (setting [7]) is on record as 15 fold.

(Values after paper PMC9304199, “A small molecule CFTR potentiator restores ATP‐dependent channel gating to the cystic fibrosis mutant G551D‐CFTR” (British Journal of Pharmacology, 2022).)
